Source: ChEMBL document CHEMBL1157518, “New trypanocidal hybrid compounds from the association of hydrazone moieties and benzofuroxan heterocycle” (Bioorg Med Chem, 2008)

Experiments:
Trypanosoma cruzi [1] = assay: Antitrypanosomal activity against epimastigotes of Trypanosoma cruzi Tulahuen 2 at 25 uM relative to control; format: functional; settings: read-out: GI
Trypanosoma cruzi [2] = assay: Antitrypanosomal activity against epimastigotes of Trypanosoma cruzi CL Brener; format: functional, organism-based
J774 = assay: Cytotoxicity against mouse J774 cells after 48 hrs by MTT assay; format: cell-based; settings: J774, 48 h
[3] = Selectivity index, ratio of IC50 for mouse J774 cells to IC50 for epimastigotes of Trypanosoma cruzi Tulahuen 2; format: toxicity, cell-based; settings: read-out: Ratio IC50
Cruzipain = Cruzipain (Trypanosoma cruzi, UniProt P25779); assay: Inhibition of Trypanosoma cruzi Tulahuen 2 epimastigote cruzipain by spectrophotometry
Sequence of Cruzipain (P25779 whole entry): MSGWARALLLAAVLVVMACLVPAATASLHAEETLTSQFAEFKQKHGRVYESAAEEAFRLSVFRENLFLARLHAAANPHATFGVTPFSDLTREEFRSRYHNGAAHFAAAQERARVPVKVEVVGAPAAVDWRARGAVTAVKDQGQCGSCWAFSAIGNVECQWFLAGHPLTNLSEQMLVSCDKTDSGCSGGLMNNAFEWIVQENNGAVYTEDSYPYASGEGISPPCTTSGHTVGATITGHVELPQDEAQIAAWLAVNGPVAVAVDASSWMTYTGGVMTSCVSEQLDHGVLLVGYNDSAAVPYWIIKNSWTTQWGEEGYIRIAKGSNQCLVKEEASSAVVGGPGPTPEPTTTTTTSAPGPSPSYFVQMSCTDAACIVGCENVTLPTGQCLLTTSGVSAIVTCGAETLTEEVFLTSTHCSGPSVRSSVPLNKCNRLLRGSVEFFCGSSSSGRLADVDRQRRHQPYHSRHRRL

[4] = molecular target: Trypanothione reductase (Trypanosoma cruzi) (UniProt P28593); assay: Inhibition of Trypanosoma cruzi recombinant trypanothione reductase at 100 uM by spectrophotometry
Sequence of Trypanothione reductase (Trypanosoma cruzi) (P28593 whole entry, looked up): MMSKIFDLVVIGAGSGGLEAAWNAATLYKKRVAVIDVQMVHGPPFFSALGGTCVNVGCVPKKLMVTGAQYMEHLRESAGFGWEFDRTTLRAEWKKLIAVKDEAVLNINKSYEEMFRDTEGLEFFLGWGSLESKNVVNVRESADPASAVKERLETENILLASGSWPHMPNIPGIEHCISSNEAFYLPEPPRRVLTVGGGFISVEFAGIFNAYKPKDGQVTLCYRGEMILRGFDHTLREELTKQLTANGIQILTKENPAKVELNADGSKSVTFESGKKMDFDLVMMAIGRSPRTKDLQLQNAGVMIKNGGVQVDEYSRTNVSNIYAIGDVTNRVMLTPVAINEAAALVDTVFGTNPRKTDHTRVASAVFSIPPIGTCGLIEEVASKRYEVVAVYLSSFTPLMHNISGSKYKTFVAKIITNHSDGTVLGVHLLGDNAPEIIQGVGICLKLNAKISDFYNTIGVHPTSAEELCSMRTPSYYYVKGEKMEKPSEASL

[5] = molecular target: Trypanothione reductase (Trypanosoma cruzi) (UniProt P28593); assay: Inhibition of Trypanosoma cruzi recombinant trypanothione reductase at […] by spectrophotometry
Trypanosoma cruzi [6] = assay: Antitrypanosomal activity against epimastigotes of Trypanosoma cruzi Tulahuen 2; format: functional, organism-based
[7] = molecular target: Cruzipain (Trypanosoma cruzi) (UniProt P25779); assay: Inhibition of Trypanosoma cruzi Tulahuen 2 epimastigote cruzipain at 100 uM by spectrophotometry
Sequence of Cruzipain (Trypanosoma cruzi) (P25779 123-467 limits assumed): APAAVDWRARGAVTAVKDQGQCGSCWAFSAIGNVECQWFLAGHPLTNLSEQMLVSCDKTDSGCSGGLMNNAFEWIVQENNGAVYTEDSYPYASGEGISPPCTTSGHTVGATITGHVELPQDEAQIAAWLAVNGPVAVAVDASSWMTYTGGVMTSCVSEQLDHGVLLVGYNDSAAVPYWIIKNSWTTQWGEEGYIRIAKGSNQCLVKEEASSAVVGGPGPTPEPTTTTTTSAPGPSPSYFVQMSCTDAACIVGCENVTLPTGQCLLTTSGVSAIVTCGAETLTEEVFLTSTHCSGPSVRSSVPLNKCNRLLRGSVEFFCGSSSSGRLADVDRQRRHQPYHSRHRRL

[8] = molecular target: Trypanothione reductase (Trypanosoma cruzi) (UniProt P28593); assay: Inhibition of Trypanosoma cruzi recombinant trypanothione reductase at 40 uM by spectrophotometry

| IC50 (Trypanosoma cruzi [2]) [µM] | IC50 (Cruzipain) [µM] | inhibition [4] [%] | inhibition [5] [%] | IC50 (Trypanosoma cruzi [6]) [µM] | inhibition [7] [%] | inhibition [8] [%] | SMILES | inhibition of growth at 25 µM (Trypanosoma cruzi [1]) [%] | IC50 (J774) [µM] | selectivity ratio [3] |
| --- | --- | --- | --- | --- | --- | --- | --- | --- | --- | --- |
| 19.8 | 43 | 0 | 0 | – | – | – | NC(=S)N/N=C/c1ccc(OCc2ccc3no[n+]([O-])c3c2)cc1 | 70 | 400 | 26.7 |
| – | 73 | – | – | 25 | – | – | [O-][n+]1onc2ccc(/C=N/N=C/c3cc(Br)ccc3O)cc21 | 48 | 84 | < 3.4 |
| – | > 100 | 0 | 0 | > 25 | 23 | – | NC(=O)N/N=C/c1ccc(OCc2ccc3no[n+]([O-])c3c2)cc1 | 25 | – | – |
| – | – | 19 | – | 6.8 | – | – | N=C(N/N=C/c1ccc(O)cc1)SCc1ccc2no[n+]([O-])c2c1 | 100 | 142 | 20.9 |
| – | – | – | – | – | – | – | CN(C/C=C/C#CC(C)(C)C)Cc1cccc2ccccc12 [TERBINAFINE] | 100 | – | 5.1 |
| – | > 100 | 19 | – | > 25 | 7 | 9 | NC(=S)N/N=C/c1ccc2no[n+]([O-])c2c1 | 5 | – | – |
| – | > 100 | 9 | – | > 25 | 36 | 13 | C=CCNC(=S)N/N=C/c1ccc2no[n+]([O-])c2c1 | 35 | – | – |
| 38.2 | 32 | 50 | – | > 25 | – | 30 | N=C(N)N/N=C/c1ccc(OCc2ccc3no[n+]([O-])c3c2)cc1 | 40 | < 50 | < 2 |
| – | – | – | – | – | – | – | CC1CS(=O)(=O)CCN1/N=C/c1ccc([N+](=O)[O-])o1 (centres undefined) [NIFURTIMOX] | 100 | – | – |
| 2.6 | 78 | 0 | 0 | 8.9 | – | – | [O-][n+]1onc2ccc(/C=N/NC(=S)Nc3ccccc3)cc21 | 93 | < 50 | < 5.6 |
| – | – | – | – | – | – | – | CC(=O)N1CCN(c2ccc(OCC3COC(Cn4ccnc4)(c4ccc(Cl)cc4Cl)O3)cc2)CC1 (centres undefined) [KETOCONAZOLE] | 100 | < 50 | < 5 |
| – | 68 | – | – | > 25 | – | – | [O-][n+]1onc2ccc(/C=N/N=C/c3ccccc3O)cc21 | 17 | – | – |
| – | – | 19 | – | 8.7 | – | – | O=Cc1ccc(OCc2ccc3no[n+]([O-])c3c2)cc1 | 98 | 60 | 6.9 |
| – | 100 | – | – | 25 | – | – | [O-][n+]1onc2ccc(/C=N/N=C/c3ccc(O)cc3)cc21 | 52 | – | – |
| – | – | – | – | – | – | – | O=C(Cn1ccnc1[N+](=O)[O-])NCc1ccccc1 [BENZNIDAZOLE] | 100 | – | – |
